According to patent publication US11578080B2, “Thienopyrimidones” (Boehringer Ingelheim International GmbH, priority 2019, dated 2023):

Experiments:
[1] = Assay C: Hepatocyte clearance; assay type: in vitro ADME, human; conditions: hepatocyte suspension, 1 μM test compound
Experimental: Assay C: Hepatocyte Clearance
The metabolic degradation of the test compound is assayed in a hepatocyte suspension. Hepatocytes (cryopreserved) are incubated in. Dulbecco's modified eagle medium (supplemented with 3.5 μg glucagon/500 mL, 2.5 mg insulin/500 mL and 3.75 mg/500 mL hydrocortison) containing 5% or 50% species serum.
Following a 30 min preincubation in an incubator (37° C., 10% CO2) 5 μl of test compound solution (80 μM; from 2 mM in DMSO stock solution diluted 1:25 with medium) are added into 395 μl hepatocyte suspension (cell density in the range 0.25-5 Mio cells/mL depending on the species, typically 1 Mio cells/mL; final concentration of test compound 1 μM, final DMSO concentration 0.05%).
The cells are incubated for six hours (incubator, orbital shaker) and samples (25 μl) are taken at 0, 0.5, 1, 2, 4 and 6 hours. Samples are transferred into acetonitrile and pelleted by centrifugation (5 min). The supernatant is transferred to a new 96-deepwell plate, evaporated under nitrogen and resuspended.
Decline of parent compound is analyzed by HPLC-MS/MS
CLint is calculated as follows CL_[…]=Dose/AUC=(C0/CD)/(AUD+clast/k)×1000/60. CO: initial concentration in the incubation [μM], CD: cell density of vital cells [10e6 cells/mL], AUD: area under the data [μM×h], clast: concentration of last data point [μM], k: slope of the regression line for parent decline [h-1].
The calculated in vitro hepatic intrinsic clearance can be scaled up to the intrinsic in vivo hepatic Clearance and used to predict hepatic in vivo blood clearance (CL) by the use of a liver model (well stirred model). CL_[…]_INVIVO [ml/min/kg]=(CL_[…] [μL/min/10e6 cells]×hepatocellularity [10e6 cells/g liver]×liver factor [g/kg body weight])/1000 CL [ml/min/kg]=CL_[…]_INVIVO [ml/min/kg]×hepatic blood flow [ml/min/kg]/(CL_[…]_INVIVO [ml/min/kg]+hepatic blood flow [ml/min/kg]) Qh [%]=CL [ml/min/kg]/hepatic blood flow [ml/min/kg])
(§1) Hepatocellularity, human: 120×10e6 cells/g liver
(§2) Liver factor, human: 25.7 g/kg bodyweight
(§3) Blood flow, human: 21 ml/(min×kg)

[2] = Assay B: Microsomal clearance; assay type: in vitro ADME, human; conditions: pooled liver microsomes, 1 μM test compound, 37° C.
Experimental: Assay B: Microsomal Clearance:
The metabolic degradation of the test compound is assayed at 37° C. with pooled liver microsomes. The final incubation volume of 100 μl per time point contains TRIS buffer pH 7.6 at RT (0.1 M), magnesium chloride (5 mM), microsomal protein (1 mg/ml) and the test compound at a final concentration of 1 μM.
Following a short preincubation period at 37° C., the reactions are initiated by addition of beta-nicotinamide adenine dinucleotide phosphate, reduced form (NADPH, 1 mM) and terminated by transferring an aliquot into solvent after different time points (0, 5, 15, 30, 60 min). Additionally, the NADPH-independent degradation is monitored in incubations without NADPH, terminated at the last time point. The [%] remaining test compound after NADPH independent incubation is reflected by the parameter c(control) (metabolic stability). The quenched incubations are pelleted by centrifugation (10000 g, 5 min).
An aliquot of the supernatant is assayed by LC-MS/MS for the amount of parent compound. The half-life (t½ INVITRO) is determined by the slope of the semilogarithmic plot of the concentration-time profile.
The intrinsic clearance (CL_[…]) is calculated by considering the amount of protein in the incubation: CL_[…] [μl/min/mg protein]=(Ln 2/(half-life [min]*protein content [mg/ml]))*1000 CL_[…]_INVIVO [ml/min/kg]=(CL_[…] [μL/min/mg protein]×MPPGL [mg protein/g liver]×liver factor [g/kg body weight])/1000 Qh [%]=CL [ml/min/kg]/hepatic blood flow [ml/min/kg])
as §1, §2, §3

human TRPA1 ion channel = human TRPA1 ion channel (Homo sapiens (Human), UniProt O75762); experiment: Assay A: TRPA1 assay (FLIPR calcium, AITC agonism, HEK293 over-expressing human TRPA1); assay type: cell-based; conditions: HEK293 over-expressing human TRPA1, AITC 10 μM, FLIPRtetra; read-out: hTRPA1 IC50
Chain of human TRPA1 ion channel (O75762 whole entry): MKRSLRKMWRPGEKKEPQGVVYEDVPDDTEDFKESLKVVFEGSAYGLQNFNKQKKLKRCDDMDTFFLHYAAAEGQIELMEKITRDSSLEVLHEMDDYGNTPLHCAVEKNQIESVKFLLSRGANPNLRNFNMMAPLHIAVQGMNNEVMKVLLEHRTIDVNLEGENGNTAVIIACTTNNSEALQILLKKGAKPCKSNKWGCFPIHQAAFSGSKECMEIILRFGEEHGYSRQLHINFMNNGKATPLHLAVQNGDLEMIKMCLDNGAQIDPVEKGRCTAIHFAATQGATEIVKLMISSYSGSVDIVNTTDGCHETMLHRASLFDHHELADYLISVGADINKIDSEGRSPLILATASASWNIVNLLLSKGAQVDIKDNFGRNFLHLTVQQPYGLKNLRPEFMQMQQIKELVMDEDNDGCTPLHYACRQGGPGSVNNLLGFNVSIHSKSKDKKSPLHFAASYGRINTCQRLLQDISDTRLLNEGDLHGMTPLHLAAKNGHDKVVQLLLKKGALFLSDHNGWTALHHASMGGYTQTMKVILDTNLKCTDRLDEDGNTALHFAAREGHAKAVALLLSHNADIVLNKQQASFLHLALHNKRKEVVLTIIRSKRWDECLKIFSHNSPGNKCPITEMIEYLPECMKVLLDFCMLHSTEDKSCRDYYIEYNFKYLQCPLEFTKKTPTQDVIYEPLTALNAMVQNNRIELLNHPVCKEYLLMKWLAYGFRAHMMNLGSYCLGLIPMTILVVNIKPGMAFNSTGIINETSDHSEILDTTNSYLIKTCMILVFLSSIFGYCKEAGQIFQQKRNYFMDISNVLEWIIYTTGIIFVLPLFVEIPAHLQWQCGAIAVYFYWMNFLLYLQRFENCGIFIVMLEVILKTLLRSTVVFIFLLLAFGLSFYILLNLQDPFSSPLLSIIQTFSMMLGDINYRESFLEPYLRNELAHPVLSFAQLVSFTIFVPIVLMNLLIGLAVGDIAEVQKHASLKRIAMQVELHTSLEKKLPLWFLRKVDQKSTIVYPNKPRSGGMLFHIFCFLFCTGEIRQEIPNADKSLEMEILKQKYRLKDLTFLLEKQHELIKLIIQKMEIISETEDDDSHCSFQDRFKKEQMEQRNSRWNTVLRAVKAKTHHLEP
Experimental: A human HEK293 cell line over-expressing the human TRPA1 ion channel (Perkin Elmer, Product No. AX-004-PCL) was used as a test system for compound efficacy and potency. Compound activity was determined by measuring the effect of compounds on intracellular calcium concentration induced by AITC (Allylisothiocyanat) agonism in a FLIPRtetra system (Molecular Devices).
The cells were obtained as frozen cells in cryo-vials and stored until use at −150° C. Cells were grown in culture medium (MEM/EBSS medium with 10% FCS and 0.4 mg/ML Geneticin). […] For sub-culturing cells were detached from flasks by Versene. At the day before the assay, cells were detached, washed twice with medium (MEM/EBSS medium with 10% FCS) and 20000 cells in 20 μl/well were seeded to Poly D-Lysin biocoated 384-well plates (black, clear bottom, Cat. 356697) from Corning. Plates were incubated for 24 hours at 37° C./5% CO2 before use in the assay.
The test compounds were dissolved in 100% DMSO at a concentration of 10 mM and in a first step diluted in DMSO to a concentration of 5 mM, followed by serial dilution steps in 100% DMSO. Dilution factor and number of dilution steps may vary according to needs. Typically 8 different concentrations by 1:5 dilutions were prepared, further intermediate dilutions (1:20) of the substances were carried out with HBSS/HEPES buffer (1×HEPES, Cat. 14065 from Gibco, 20 mM HEPES, Cat. 83264 from SIGMA, 0.1% BSA Cat. 11926 from Invitrogen, pH 7,4
At the assay day cells were washed 3× with assay puffer, 20 μL buffer remained in the wells after washing. 10 μL Ca6 kit (Cat. R8191 MolecularDevices) loading buffer in HBSS/HEPES was added to the cells and the plates were incubated with lid for 120 minutes at […]. 10 μL of compound or controls in HBSS/HEPES buffer/5% DMSO from the intermediate dilution plate were carefully added to the wells. […] Finally 10 μL of the agonist AITC 50 μM dissolved in HBSS/HEPES buffer/0.05% DMSO (final concentration 10 μM) was added to the wells followed by an additional read on the FLIPRtetra device for 10 minutes. The area under the signal curve (AUC) after AITC addition was used for IC50/% inhibition calculations
Data Evaluation and Calculation:
Each assay microtiter plate contained wells with vehicle (1% DMSO) controls instead of compound as controls for AITC induced luminescence (100% CTL; high controls) and wells with vehicle controls without AITC as controls for non-specific changes in luminescence (0% CTL; low controls).
The analysis of the data was performed by the calculation of the area under signal curve of the individual wells. Based on this values the % value for the measurement of each substance concentration was calculated (AUC(sample)−AUC(low))*100/(AUC(high)−AUC(low)) using MegaLab software (in house development). The IC50 values were calculated from the % control values using MegaLab software. Calculation: [y=(a−d)/(1+(x/c)^b)+d], a=low value, d=high value; x=cone M; c=IC50 M; b=hill; y=% ctrl

| Structure (SMILES) | human Hepatocytes [% Qh] [1] [% Qh] | human LM [% Qh] [2] [% Qh] | IC50 (human TRPA1 ion channel) [nM] |
| --- | --- | --- | --- |
| Cc1c(C(N)=O)sc2ncn(Cc3nnn(C[C@H](O)c4cc5ccc(Cl)cc5o4)n3)c(=O)c12 [Example 8] | 36 | 43 | 15 |
| NC(=O)c1sc2ncn(Cc3nnn(C[C@H](O)c4ccc(Cl)cc4)n3)c(=O)c2c1Cl [Example 23] | 12 | <23 | 6 |
| CNC(=O)c1sc2ncn(Cc3nnn(C[C@H](O)c4ccc5c(c4)OCO5)n3)c(=O)c2c1C [Example 14] | 13 | <23 | 76 |
| O=C1NCCc2c1sc1ncn(Cc3nnn(C[C@H](O)c4cc5cc(F)ccc5o4)n3)c(=O)c21 [Example 19] | 26 | <23 | 31 |
| CN1CCc2c(sc3ncn(Cc4nnn(C[C@H](O)c5ccc(Cl)cc5)n4)c(=O)c23)C1=O [Example 7] | 26 | 36 | 16 |
| Cc1c(C(N)=O)sc2ncn(Cc3nnn(C[C@H](O)c4cc5cc(F)ccc5o4)n3)c(=O)c12 [Example 11] | 28 | <23 | 25 |
| Cc1c(C(N)=O)sc2ncn(Cc3nnn(C[C@H](O)c4cc5ccc(F)cc5o4)n3)c(=O)c12 [Example 12] | 31 | <23 | 17 |
| Cc1ccc([C@@H](O)Cn2nnc(Cn3cnc4sc5c(c4c3=O)CCNC5=O)n2)cc1 [Example 20] | 28 | <23 | 14 |
| N#Cc1ccc([C@@H](O)Cn2nnc(Cn3cnc4sc5c(c4c3=O)CCNC5=O)n2)s1 [Example 21] | 5 | 27 | 80 |
| CNC(=O)c1sc2ncn(Cc3nnn(C[C@H](O)c4ccc(C)cc4)n3)c(=O)c2c1C [Example 15] | 18 | <23 | 38 |
| O=C1NCCc2c1sc1ncn(Cc3nnn(C[C@H](O)c4cc5cc(Cl)ccc5o4)n3)c(=O)c21 [Example 18] | 48 | 32 | 14 |
| Cc1c(C(N)=O)sc2ncn(Cc3nnn(C[C@H](O)c4ccc5c(c4)OCO5)n3)c(=O)c12 [Example 10] | 14 | <23 | 28 |
| Cc1c(C(N)=O)sc2ncn(Cc3nnn(C[C@H](O)c4ccc(Cl)cc4)n3)c(=O)c12 [Example 1, 3-({2-[(2R)-2-(4-chlorophenyl)-2-hydroxyethyl]-2H-1,2,3,4-tetrazol-5-yl}methyl)-5-methyl-4-oxo-3H,4H-thieno[2,3-d]pyrimidine-6-carboxamide] | 12 | <23 | 11 |
| CNC(=O)c1sc2ncn(Cc3nnn(C[C@H](O)c4ccc(Cl)cc4)n3)c(=O)c2c1C [Example 13] | 9 | <23 | 20 |
| O=C1NCCc2c1sc1ncn(Cc3nnn(C[C@H](O)c4ccc(Cl)s4)n3)c(=O)c21 [Example 17] | 22 | <23 | 14 |

The remaining lines, values ahead:

| human Hepatocytes [% Qh] [1] [% Qh] | human LM [% Qh] [2] [% Qh] | IC50 (human TRPA1 ion channel) [nM] | Structure (SMILES) |
| --- | --- | --- | --- |
| 17 | <23 | 37 | CNC(=O)c1sc2ncn(Cc3nnn(C[C@H](O)c4ccc(Cl)s4)n3)c(=O)c2c1C [Example 16] |
| 44 | 35 | 7 | Cc1c(C(N)=O)sc2ncn(Cc3nnn(C[C@H](O)c4cc5ccccc5s4)n3)c(=O)c12 [Example 22] |
| 16 | <23 | 21 | Cc1ccc([C@@H](O)Cn2nnc(Cn3cnc4sc(C(N)=O)c(C)c4c3=O)n2)cc1 [Example 9] |
| – | <23 | 74 | Cc1c(C(N)=O)sc2ncn(Cc3nnn(C[C@H](O)c4ccc(F)c(F)c4)n3)c(=O)c12 [Example 5] |
| 7 | <23 | 12 | Cc1c(C(N)=O)sc2ncn(Cc3nnn(C[C@H](O)c4ccc(Cl)s4)n3)c(=O)c12 [Example 4] |
| 40 | <23 | 12 | Cc1c(C(N)=O)sc2ncn(Cc3nnn(C[C@H](O)c4cc5cc(Cl)ccc5o4)n3)c(=O)c12 [Example 3] |
| 13 | <23 | 12 | Cc1c(C(N)=O)sc2ncn(Cc3nnn(C[C@H](O)c4ccc(Br)cc4)n3)c(=O)c12 [Example 2] |
